Reference: PubChem BioAssay AID248 (DTP/NCI, 2004)
Where “and” joins values, the source holds several entries; their conditions need not be identical. Equal entries are not always repeated. Inconclusive results and toxic doses are left out. Rule as the data show it: active = T/C of 150% or more; inactive = T/C below 125%.

Test system: L1210 leukemia ip in BDF1 mice, survival T/C
Experiment: NCI In Vivo Anticancer Drug Screen. Data for tumor model L1210 Leukemia (intraperitoneal) in B6D2F1 (BDF1) mice
Details: endpoint: mean survival time, higher = longer survival
Summary of the method: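 Tumor was transplanted into mice, which were then dosed with test compound or vehicle alone. Survival was recorded for each group, and the treated figure was expressed relative to the control figure.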

[1] = dose: 100.0 mg/kg/injection, schedule: Q04DX002 (ip), vehicle: saline with Tween-80
[2] = dose: 200.0 mg/kg/injection, schedule: Q04DX002 (ip), vehicle: saline with Tween-80
[3] = dose: 400.0 mg/kg/injection, schedule: Q04DX002 (ip), vehicle: saline with Tween-80
[4] = dose: 100.0 mg/kg/injection, schedule: Q01DX001 (ip), vehicle: Klucel (hydroxypropylcellulose) (HPC)
[5] = dose: 200.0 mg/kg/injection, schedule: Q01DX001 (ip), vehicle: Klucel (hydroxypropylcellulose) (HPC)
[6] = dose: 400.0 mg/kg/injection, schedule: Q01DX001 (ip), vehicle: Klucel (hydroxypropylcellulose) (HPC)
[7] = dose: 50.0 mg/kg/injection, schedule: Q04DX003 (ip), vehicle: Klucel (hydroxypropylcellulose) (HPC)
[8] = dose: 100.0 mg/kg/injection, schedule: Q04DX003 (ip), vehicle: Klucel (hydroxypropylcellulose) (HPC)
[9] = dose: 200.0 mg/kg/injection, schedule: Q01DX001 (ip), vehicle: carboxymethylcellulose (CMC)
[10] = dose: 200.0 mg/kg/injection, schedule: Q04DX003 (ip), vehicle: Klucel (hydroxypropylcellulose) (HPC)
[11] = dose: 400.0 mg/kg/injection, schedule: Q01DX001 (ip), vehicle: carboxymethylcellulose (CMC)
[12] = dose: 100.0 mg/kg/injection, schedule: Q01DX009 (ip), vehicle: Klucel (hydroxypropylcellulose) (HPC)
[13] = dose: 200.0 mg/kg/injection, schedule: Q01DX009 (ip), vehicle: Klucel (hydroxypropylcellulose) (HPC)
[14] = dose: 400.0 mg/kg/injection, schedule: Q01DX009 (ip), vehicle: Klucel (hydroxypropylcellulose) (HPC)
[15] = dose: 75.0 mg/kg/injection, schedule: Q01DX001 (ip), vehicle: saline
[16] = dose: 50.0 mg/kg/injection, schedule: Q01DX009 (ip), vehicle: Klucel (hydroxypropylcellulose) (HPC)
[17] = dose: 100.0 mg/kg/injection, schedule: Q01DX009 (ip), vehicle: saline
[18] = dose: 200.0 mg/kg/injection, schedule: Q01DX009 (ip), vehicle: saline
[19] = dose: 100.0 mg/kg/injection, schedule: Q04DX003 (ip), vehicle: saline with Tween-80
[20] = dose: 200.0 mg/kg/injection, schedule: Q04DX003 (ip), vehicle: saline with Tween-80
[21] = dose: 400.0 mg/kg/injection, schedule: Q04DX003 (ip), vehicle: saline with Tween-80
[22] = dose: 100.0 mg/kg/injection, schedule: Q04DX003 (ip), vehicle: saline
[23] = dose: 200.0 mg/kg/injection, schedule: Q04DX003 (ip), vehicle: saline
[24] = dose: 400.0 mg/kg/injection, schedule: Q04DX003 (ip), vehicle: saline

Measured: T/C

C/C=C\c1ccc(OCCOC(C)=O)c(OC)c1
inactive: [1] 97 % of control | [2] 97 % of control | [3] 93 % of control

CN1C(C(=O)c2ccc(-c3ccccc3)cc2)C1c1ccccc1 (centres undefined)
inactive: [4] 93 % of control | [5] 97 % of control | [6] 110 % of control

CC(=O)Nc1cccc2c1Cc1cc([N+](=O)[O-])ccc1-2
inactive: [7] 93 % of control | dose: 100.0 mg/kg/injection, schedule: Q01DX001 (ip), vehicle: carboxymethylcellulose (CMC) 92 % of control | [8] 93 % of control | [9] 92 % of control | [10] 94 % of control | [11] 87 % of control

CCOCC(=O)c1c(O)cc(O)cc1O
inactive: [12] 97 % of control | [13] 92 % of control | [14] 101 % of control

Nc1ccc(Cn2ccc(=O)[nH]c2=O)cc1
inactive: dose: 100.0 mg/kg/injection, schedule: Q01DX001 (ip), vehicle: saline with Tween-80 102 % of control | dose: 200.0 mg/kg/injection, schedule: Q01DX001 (ip), vehicle: saline with Tween-80 94 % of control | dose: 400.0 mg/kg/injection, schedule: Q01DX001 (ip), vehicle: saline with Tween-80 87 % of control

O=C(Nc1ccccc1)P(=O)(O)c1ccccc1
inactive: dose: 62.5 mg/kg/injection, schedule: Q01DX001 (ip), vehicle: Klucel (hydroxypropylcellulose) (HPC) 102 % of control | dose: 125.0 mg/kg/injection, schedule: Q01DX001 (ip), vehicle: Klucel (hydroxypropylcellulose) (HPC) 102 % of control | dose: 250.0 mg/kg/injection, schedule: Q01DX001 (ip), vehicle: Klucel (hydroxypropylcellulose) (HPC) 92 % of control

CCCS(=O)[O-].CCCS(=O)[O-].[Zn+2]
inactive: [15] 104 % of control

Oc1cccc2cccnc12.[Al]
inactive: dose: 10.0 mg/kg/injection, schedule: Q01DX Z (ip), vehicle: carboxymethylcellulose (CMC) 93 % of control | dose: 20.0 mg/kg/injection, schedule: Q01DX Z (ip), vehicle: carboxymethylcellulose (CMC) 97 % of control | dose: 40.0 mg/kg/injection, schedule: Q01DX Z (ip), vehicle: carboxymethylcellulose (CMC) 93 % of control | [16] 94 % of control | [7] 101 % of control | [12] 100 % of control | [8] 102 % of control | [13] 96 % of control | [10] 101 % of control

CCCCOC(=O)/C=C/C(=O)[O][Sn]([CH2]CCC)([CH2]CCC)[O]C(=O)/C=C/C(=O)OCCCC
inactive: dose: 12.5 mg/kg/injection, schedule: Q01DX009 (sc), vehicle: olive oil, sesame oil, peanut oil 98 % of control | dose: 25.0 mg/kg/injection, schedule: Q01DX009 (sc), vehicle: olive oil, sesame oil, peanut oil 108 % of control | dose: 25.0 mg/kg/injection, schedule: Q04DX002 (sc), vehicle: olive oil, sesame oil, peanut oil 97 % of control | dose: 50.0 mg/kg/injection, schedule: Q01DX009 (sc), vehicle: olive oil, sesame oil, peanut oil 95 % of control | dose: 50.0 mg/kg/injection, schedule: Q04DX002 (sc), vehicle: olive oil, sesame oil, peanut oil 94 % of control | dose: 100.0 mg/kg/injection, schedule: Q04DX002 (sc), vehicle: olive oil, sesame oil, peanut oil 96 % of control and 106 % of control | dose: 200.0 mg/kg/injection, schedule: Q04DX002 (sc), vehicle: olive oil, sesame oil, peanut oil 89 % of control

CC1(C)CC[C@]2(C(=O)O)CC[C@]3(C)C(=CC[C@@H]4[C@@]5(C)CC[C@H](O)C(C)(C)[C@@H]5CC[C@]43C)[C@@H]2C1
inactive: dose: 50.0 mg/kg/injection, schedule: Q01DX009 (ip), vehicle: saline 94 % of control | dose: 100.0 mg/kg/injection, schedule: Q01DX001 (sc), vehicle: saline 103 % of control | [17] 94 % of control | dose: 100.0 mg/kg/injection, schedule: Q04DX002 (ip), vehicle: saline 97 % of control | dose: 200.0 mg/kg/injection, schedule: Q01DX001 (sc), vehicle: saline 103 % of control | [18] 97 % of control | dose: 200.0 mg/kg/injection, schedule: Q04DX002 (ip), vehicle: saline 97 % of control | dose: 400.0 mg/kg/injection, schedule: Q01DX001 (sc), vehicle: saline 103 % of control | dose: 400.0 mg/kg/injection, schedule: Q04DX002 (ip), vehicle: saline 94 % of control

COc1ccc(NC(=O)/C=N/O)c(Cl)c1
inactive: [9] 94 % of control | [11] 90 % of control

O=C1CCC2CN3CCc4c([nH]c5ccccc45)C3CC2C1 (centres undefined)
inactive: dose: 75.0 mg/kg/injection, schedule: Q01DX001 (ip), vehicle: other 110 % of control

CSc1ccc(NC(=O)Oc2cc(C)ccc2C(C)C)cc1
inactive: [16] 94 % of control | [12] 100 % of control and 88 % of control | [13] 89 % of control | [14] 91 % of control

CCCCCC/C=C/C=C/C(C)C
inactive: [15] 95 % of control | dose: 75.0 mg/kg/injection, schedule: Q04DX003 (ip), vehicle: saline 104 % of control | dose: 150.0 mg/kg/injection, schedule: Q01DX001 (ip), vehicle: saline 101 % of control | dose: 150.0 mg/kg/injection, schedule: Q04DX003 (ip), vehicle: saline 102 % of control | dose: 300.0 mg/kg/injection, schedule: Q01DX001 (ip), vehicle: saline 105 % of control | dose: 300.0 mg/kg/injection, schedule: Q04DX003 (ip), vehicle: saline 100 % of control

C[N+](C)(Cc1ccccc1)C1c2ccccc2-c2ccc(Cl)cc21 (centres undefined)
inactive: dose: 6.25 mg/kg/injection, schedule: Q04DX002 (ip), vehicle: saline with Tween-80 91 % of control | dose: 12.5 mg/kg/injection, schedule: Q04DX002 (ip), vehicle: saline with Tween-80 94 % of control | dose: 25.0 mg/kg/injection, schedule: Q04DX002 (ip), vehicle: saline with Tween-80 88 % of control

NC(=O)c1ccccc1C(=O)c1ccccc1
inactive: dose: 100.0 mg/kg/injection, schedule: Q01DX001 (ip), vehicle: saline 102 % of control | dose: 200.0 mg/kg/injection, schedule: Q01DX001 (ip), vehicle: saline 104 % of control

Nc1ccc2c(c1)Cc1cc(NC(=O)C(F)(F)F)ccc1-2
inactive: [19] 100 % of control | [20] 96 % of control | [21] 92 % of control

O=C1OCCN1N1C(=O)CC2(CCCCC2)C1=O
inactive: dose: 50.0 mg/kg/injection, schedule: Q01DX001 (ip), vehicle: Klucel (hydroxypropylcellulose) (HPC) 100 % of control | [4] 107 % of control | [5] 97 % of control

CC1=C(c2ccccc2)OS(=O)(=O)NC1=O
inactive: [22] 100 % of control | [23] 97 % of control | [24] 101 % of control

Cc1ccc2c(c1)Oc1ccccc1S2
inactive: [1] 96 % of control | [2] 103 % of control | [3] 103 % of control

Cc1ncc([N+](=O)[O-])n1C
inactive: [8] 100 % of control | [10] 100 % of control | dose: 400.0 mg/kg/injection, schedule: Q04DX003 (ip), vehicle: Klucel (hydroxypropylcellulose) (HPC) 97 % of control

O=C(O)C1CC=CCC1C(=O)O (centres undefined)
inactive: dose: 100.0 mg/kg/injection, schedule: Q01DX005 (ip), vehicle: saline 95 % of control | [17] 108 % of control | [19] 97 % of control | [22] 94 % of control | dose: 200.0 mg/kg/injection, schedule: Q01DX005 (ip), vehicle: saline 98 % of control | [18] 118 % of control | [20] 95 % of control | [23] 91 % of control | dose: 400.0 mg/kg/injection, schedule: Q01DX005 (ip), vehicle: saline 92 % of control | [21] 91 % of control | [24] 99 % of control

O=C(O)c1ccccc1C(=O)c1ccc2cccc(F)c2c1
inactive: [4] 105 % of control | [5] 120 % of control | [6] 100 % of control
